Literature values, collected in US9415078B2 (priority 2011, dated 2016).
Several values for one entry are separate records, joined by “and”; a condition that tells them apart may be missing. Equal values may be shown once. Read-outs that look alike come from different tables or passages of the source.

Test system: non squamous and squamous carcinoma of lung
Conditions: pemetrexed-based therapy, two comparisons

With Nc1nc2[nH]cc(CCc3ccc(C(=O)N[C@@H](CCC(=O)O)C(=O)O)cc3)c2c(=O)[nH]1 [pemetrexed] as the compound, how does the “HR for survival versus the comparators” value (Non squamous patients) read?
Its value is 0.78 and 0.84.

What about the “HR for survival versus the comparators” value (squamous patients) of the same compound?
The value was 1.56 and 1.23.
